Key:
Test in all cases: DSF assay
Assay type in all cases: binding
Conditions in all cases: 20 µM compound
MARK4A = molecular target: T1, MARK4A (Homo sapiens, UniProt Q96L34)
T1 construct: purchased in-house DSF panel (SGC-style construct names; the trailing A/B is a construct suffix)

DYRK2A = molecular target: T2, DYRK2A (Homo sapiens, UniProt Q92630)
T2 construct: purchased in-house DSF panel (SGC-style construct names; the trailing A/B is a construct suffix)
T2 sequence (Q92630 146-552): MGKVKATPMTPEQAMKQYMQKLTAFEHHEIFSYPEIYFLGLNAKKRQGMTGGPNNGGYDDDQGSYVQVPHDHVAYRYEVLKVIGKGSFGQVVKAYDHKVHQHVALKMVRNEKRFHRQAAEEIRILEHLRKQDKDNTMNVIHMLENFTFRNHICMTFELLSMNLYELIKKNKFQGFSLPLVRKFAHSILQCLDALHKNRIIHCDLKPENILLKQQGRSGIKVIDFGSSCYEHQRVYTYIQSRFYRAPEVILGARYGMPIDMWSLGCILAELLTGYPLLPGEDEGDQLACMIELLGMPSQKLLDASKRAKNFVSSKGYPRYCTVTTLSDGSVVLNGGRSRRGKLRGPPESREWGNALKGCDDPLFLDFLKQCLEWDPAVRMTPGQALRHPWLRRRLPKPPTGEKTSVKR

RPS6KA6A = system: RPS6KA6A
EPHA7A = molecular target: T3, EPHA7A (Homo sapiens, UniProt Q15375)
T3 construct: purchased in-house DSF panel (SGC-style construct names; the trailing A/B is a construct suffix)
T3 sequence (Q15375 590-899): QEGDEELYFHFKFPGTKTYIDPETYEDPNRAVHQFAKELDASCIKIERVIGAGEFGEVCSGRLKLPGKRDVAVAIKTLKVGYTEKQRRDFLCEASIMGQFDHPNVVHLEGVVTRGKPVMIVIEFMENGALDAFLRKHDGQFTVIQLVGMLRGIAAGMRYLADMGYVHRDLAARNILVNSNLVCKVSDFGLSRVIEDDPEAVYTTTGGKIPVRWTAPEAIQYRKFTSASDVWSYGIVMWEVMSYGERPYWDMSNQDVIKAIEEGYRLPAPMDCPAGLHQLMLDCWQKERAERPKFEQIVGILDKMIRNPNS

FGFR1B = molecular target: T4, FGFR1B (Homo sapiens, UniProt P11362)
T4 construct: purchased in-house DSF panel (SGC-style construct names; the trailing A/B is a construct suffix)
T4 sequence (P11362 456-767): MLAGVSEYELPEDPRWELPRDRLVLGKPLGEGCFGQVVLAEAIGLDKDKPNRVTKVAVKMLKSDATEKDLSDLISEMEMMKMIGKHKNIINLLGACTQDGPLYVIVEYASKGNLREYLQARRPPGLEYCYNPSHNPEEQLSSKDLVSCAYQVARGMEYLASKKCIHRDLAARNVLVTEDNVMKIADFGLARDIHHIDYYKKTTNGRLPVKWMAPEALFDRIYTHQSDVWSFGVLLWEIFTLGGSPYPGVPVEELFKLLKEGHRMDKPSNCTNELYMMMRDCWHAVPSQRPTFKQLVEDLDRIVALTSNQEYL

DMPK1A = molecular target: T5, DMPK1A (Homo sapiens, UniProt Q09013)
T5 construct: purchased in-house DSF panel (SGC-style construct names; the trailing A/B is a construct suffix)
T5 sequence (Q09013 1-629): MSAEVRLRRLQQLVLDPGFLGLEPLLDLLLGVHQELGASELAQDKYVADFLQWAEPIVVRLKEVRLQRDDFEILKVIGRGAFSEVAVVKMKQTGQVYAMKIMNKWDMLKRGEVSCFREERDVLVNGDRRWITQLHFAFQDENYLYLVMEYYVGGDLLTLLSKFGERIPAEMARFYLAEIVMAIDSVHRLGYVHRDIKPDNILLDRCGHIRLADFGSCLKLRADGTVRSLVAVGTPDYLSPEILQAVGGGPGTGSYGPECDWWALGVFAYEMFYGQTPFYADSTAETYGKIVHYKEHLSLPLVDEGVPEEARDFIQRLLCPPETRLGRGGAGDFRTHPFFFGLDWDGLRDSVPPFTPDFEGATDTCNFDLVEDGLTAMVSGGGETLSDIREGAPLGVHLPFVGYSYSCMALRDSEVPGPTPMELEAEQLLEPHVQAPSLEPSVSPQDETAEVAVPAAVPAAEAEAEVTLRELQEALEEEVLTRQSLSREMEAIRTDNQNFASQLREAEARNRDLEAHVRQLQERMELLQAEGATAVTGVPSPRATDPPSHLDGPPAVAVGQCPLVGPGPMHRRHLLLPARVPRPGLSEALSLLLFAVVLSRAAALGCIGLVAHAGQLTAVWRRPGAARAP

T1 sequence (Q96L34 59-310): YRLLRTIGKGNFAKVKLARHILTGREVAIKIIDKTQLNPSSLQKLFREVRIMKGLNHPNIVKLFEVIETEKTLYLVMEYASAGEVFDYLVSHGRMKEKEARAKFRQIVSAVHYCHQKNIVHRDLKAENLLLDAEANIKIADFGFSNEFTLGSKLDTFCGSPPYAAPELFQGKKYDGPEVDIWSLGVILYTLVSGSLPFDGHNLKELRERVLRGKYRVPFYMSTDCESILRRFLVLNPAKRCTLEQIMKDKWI

Compound	ΔTm at 20 µM (MARK4A) [°C]	ΔTm at 20 µM (DYRK2A) [°C]	ΔTm (RPS6KA6A) [°C]	ΔTm at 20 µM (EPHA7A) [°C]	ΔTm at 20 µM (FGFR1B) [°C]	ΔTm at 20 µM (DMPK1A) [°C]
CCOC(=O)c1cc(Nc2cc(C3CC3)[nH]n2)nc(Nc2ccc(CC#N)cc2)n1 [compound 5]	6.15	7.58	0.34	3.39	5.22	3.8
CC(C)(C)OC(=O)NCCCOCCOCCOCCCNC(=O)c1cc(Nc2cc(C3CC3)[nH]n2)nc(Nc2ccc(CC#N)cc2)n1 [5-L]	3.21	7.69	0.35	2.65	3.47	3.69
CC(C)(C)OC(=O)NCCOCCOCCOCCOCCC(=O)N1CCN(c2cc(Nc3cc(C4CC4)[nH]n3)nc(Nc3ccc(CC#N)cc3)n2)CC1 [4-L]	6.16	7.18	0.07	1.51	6.61	3.19

From paper PMC11851430, “Workflow for E3 Ligase Ligand Validation for PROTAC Development” (ACS Chemical Biology, 2025)
